Earlier results on two compounds are cited in patent US20060201863A1, “Sterilization water tank” (priority 2003, published 2006).

The test system of one series is Bacteria. The following applies: against Bacteria.
Series [1] concerns Colitis germs. The following applies: against Colitis germs.
In another series the test system is Staphylococcus. The following applies: against Staphylococcus.
A further series has as its system Pseudomonas aeruginosa. The following applies: against Pseudomonas aeruginosa.
The next series deals with Salmonella. The settings on record: against Salmonella.
The next series has as its system Pneumonia bacillus. The settings on record: against Pneumonia bacillus.
The next series has as its system Rice-straw bacillus. The following applies: against Rice-straw bacillus.
Series [2] deals with Colitis germs. The following applies: silver in an ionized state.

Turning to `[Cu+2]` [Copper ion, reference compound], the “MIC (minimum inhibitory concentration)” value in the series on Bacteria is given as 400 ppm; with Colitis germs [1], 200 ppm; in the series on Staphylococcus, 400 ppm; with Pseudomonas aeruginosa, 400 ppm; in the series with Salmonella, 400 ppm; in the series on Pneumonia bacillus, 200 ppm. For the same compound, the “MIC (minimum inhibitory concentration)” value in the series on Rice-straw bacillus was 400 ppm.

For `[Ag+]` [Silver ion], the “MIC (minimum inhibitory concentration)” value in the series on Bacteria was 0.78 ppm; in the series on Colitis germs [1] it was 6.3 ppm; with Staphylococcus it was 0.78 ppm; with Pseudomonas aeruginosa it was 0.78 ppm; with Salmonella it was 0.78 ppm; in the series with Pneumonia bacillus, 0.78 ppm. For the same compound, in the series with Rice-straw bacillus, the “MIC (minimum inhibitory concentration)” value was 1.56 ppm. The “amount that may kill colitis germs” value with Colitis germs [2] is given as “about several ten”.
